Data from the NIST ThermoML archive (doi:10.1016/j.jct.2012.10.025).
Numbers after ± are expanded uncertainties.

Conditions: Liquid; for speed of sound: Pulse-echo method; for mass density: Vibrating tube method

SMILES: CCCCCCCCCCC [undecane]
- speed of sound (278 K, 1000 kPa): 1355.2 ± 5.6 m/s
- mass density (278 K, 1000 kPa): 752.64 ± 1.2 kg/m3
- speed of sound (278 K, 20000 kPa): 1455.4 ± 6 m/s
- mass density (278 K, 20000 kPa): 764.19 ± 1.3 kg/m3
- speed of sound (278 K, 40000 kPa): 1547.8 ± 6.3 m/s
- mass density (278 K, 40000 kPa): 775.36 ± 1.4 kg/m3
- speed of sound (278 K, 60000 kPa): 1629.3 ± 6.6 m/s
- mass density (278 K, 60000 kPa): 785.14 ± 1.4 kg/m3
- speed of sound (278 K, 80000 kPa): 1702.6 ± 6.9 m/s
- speed of sound (278 K, 100000 kPa): 1770.5 ± 7.2 m/s
- speed of sound (288 K, 1000 kPa): 1315 ± 5.4 m/s
- mass density (288 K, 1000 kPa): 745.18 ± 1.2 kg/m3
- speed of sound (288 K, 20000 kPa): 1419.1 ± 5.8 m/s
- mass density (288 K, 20000 kPa): 757.29 ± 1.3 kg/m3
- speed of sound (288 K, 40000 kPa): 1514.4 ± 6.2 m/s
- mass density (288 K, 40000 kPa): 768.82 ± 1.4 kg/m3
- speed of sound (288 K, 60000 kPa): 1598 ± 6.5 m/s
- mass density (288 K, 60000 kPa): 778.9 ± 1.4 kg/m3
- speed of sound (288 K, 80000 kPa): 1673 ± 6.8 m/s
- speed of sound (288 K, 100000 kPa): 1742.4 ± 7.1 m/s
- speed of sound (298 K, 1000 kPa): 1275.2 ± 5.2 m/s
- mass density (298 K, 1000 kPa): 737.58 ± 1.2 kg/m3
- speed of sound (298 K, 20000 kPa): 1383.2 ± 5.7 m/s
- mass density (298 K, 20000 kPa): 750.5 ± 1.3 kg/m3
- speed of sound (298 K, 40000 kPa): 1481.3 ± 6.1 m/s
- mass density (298 K, 40000 kPa): 762.53 ± 1.3 kg/m3
- speed of sound (298 K, 60000 kPa): 1566.9 ± 6.4 m/s
- mass density (298 K, 60000 kPa): 773.01 ± 1.4 kg/m3
- speed of sound (298 K, 80000 kPa): 1643.4 ± 6.7 m/s
- speed of sound (298 K, 100000 kPa): 1714.4 ± 7 m/s
- speed of sound (308 K, 1000 kPa): 1236.3 ± 5.1 m/s
- mass density (308 K, 1000 kPa): 729.86 ± 1.2 kg/m3
- speed of sound (308 K, 20000 kPa): 1348.6 ± 5.5 m/s
- mass density (308 K, 20000 kPa): 743.8 ± 1.3 kg/m3
- speed of sound (308 K, 40000 kPa): 1449.8 ± 5.9 m/s
- mass density (308 K, 40000 kPa): 756.47 ± 1.3 kg/m3
- speed of sound (308 K, 60000 kPa): 1537.3 ± 6.3 m/s
- mass density (308 K, 60000 kPa): 767.47 ± 1.4 kg/m3
- speed of sound (308 K, 80000 kPa): 1615.1 ± 6.6 m/s
- speed of sound (308 K, 100000 kPa): 1687.2 ± 6.9 m/s
- speed of sound (318 K, 1000 kPa): 1197.9 ± 4.9 m/s
- mass density (318 K, 1000 kPa): 722.02 ± 1.2 kg/m3
- speed of sound (318 K, 20000 kPa): 1314.1 ± 5.4 m/s
- mass density (318 K, 20000 kPa): 737.19 ± 1.2 kg/m3
- speed of sound (318 K, 40000 kPa): 1418.4 ± 5.8 m/s
- mass density (318 K, 40000 kPa): 750.63 ± 1.3 kg/m3
- speed of sound (318 K, 60000 kPa): 1508.1 ± 6.2 m/s
- mass density (318 K, 60000 kPa): 762.26 ± 1.4 kg/m3
- speed of sound (318 K, 80000 kPa): 1587.7 ± 6.5 m/s
- speed of sound (318 K, 100000 kPa): 1661.4 ± 6.8 m/s
